Assay results: patent publication US11230543B2, “Biaryl monobactam compounds and methods of use thereof for the treatment of bacterial infections” (priority 2015, dated 2022)
Where a name gives a salt, the structure may show the parent alone.

Experiments:
[1] = tested on: Klebsiella pneumoniae expressing KPC-1 (CL6569); assay: Antibiotic activity: growth inhibitory concentration (OD600), Klebsiella pneumoniae CL6569; assay type: cell-based; conditions: lowest concentration inhibiting 95% of bacterial growth; in the presence of β lactamase inhibitor Relebactam 4 μg/mL; 35±2° C. for 22 hours; tested range 100 μM to 0.098 μM
Outline: (§1)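 Clinical strains at ~2×10^5 CFU/mL in cation-adjusted Mueller-Hinton II broth, with relebactam at 4 μg/mL final; compounds 100 μM to 0.098 μM final. After 22 hours at 35±2° C, OD600 read; MITC95 is lowest concentration giving 95% growth inhibition.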

[2] = tested on: Pseudomonas aeruginosa expressing AmpC (CL5701); assay: Antibiotic activity: growth inhibitory concentration (OD600), Pseudomonas aeruginosa CL5701; assay type: cell-based; conditions: lowest concentration inhibiting 95% of bacterial growth; in the presence of β lactamase inhibitor Relebactam 4 μg/mL; 35±2° C. for 22 hours; tested range 100 μM to 0.098 μM
Outline: as §1

SMILES | KP_CL6569 MITC95 [1] [µM] | PA_CL5701 MITC95 [2] [µM]
C[n+]1c(N)c(-c2ccc(OC[C@H](O/N=C(\C(=O)N[C@@H]3C(=O)N(OS(=O)(=O)[O-])C3(C)C)c3nc(N)sc3Cl)C(=O)O)cc2)cn1CCCN [Example 49, (S)-3-((Z)-2-(((S)-2-(4-(3-Amino-1-(3-aminopropyl)-2-methyl-1H-pyrazol-2-ium-4-yl)phenoxy)-1-carboxyethoxy)imino)-2-(2-amino-5-chlorothiazol-4-yl)acetamido)-2,2-dimethyl-4-oxoazetidin-1-yl sulfate] | 0.7813 | 6.25
C[n+]1cc(-c2ccc(OC[C@H](O/N=C(\C(=O)N[C@@H]3C(=O)N(OS(=O)(=O)[O-])C3(C)C)c3csc(N)n3)C(=O)O)cc2Cl)cn1CCCN [Example 38, (S)-3-((Z)-2-(((S)-2-(4-(1-(3-aminopropyl)-2-methyl-1H-pyrazol-2-ium-4-yl)-3-chlorophenoxy)-1-carboxyethoxy)imino)-2-(2-aminothiazol-4-yl)acetamido)-2,2-dimethyl-4-oxoazetidin-1-yl sulfate] | 0.3906 | 6.25
C[n+]1cc(-c2ccc(OC[C@H](O/N=C(\C(=O)N[C@@H]3C(=O)N(OS(=O)(=O)O)C3(C)C)c3csc(N)n3)C(=O)O)cc2)cn1CCCNCCCN [Example 104, (S)-3-((E)-2-(((S)-2-(4-(1-(3-((3-aminopropyl)amino)-propyl)-2-methyl-1H-pyrazol-2-ium-4-yl)phenoxy)-1-carboxyethoxy)imino)-2-(2-aminothiazol-4-yl)acetamido)-2,2-dimethyl-4-oxoazetidin-1-yl sulfate, 3TFA] | 0.1953 | 6.25
C[n+]1ccc(-c2ccc(OC[C@H](O/N=C(\C(=O)N[C@@H]3C(=O)N(OS(=O)(=O)[O-])C3(C)C)c3csc(N)n3)C(=O)O)cc2)cc1NCCN [Example 62, (S)-3-((Z)-2-(((S)-2-(4-(2-((2-aminoethyl)amino)-1-methylpyridin-1-ium-4-yl)phenoxy)-1-carboxyethoxy)imino)-2-(2-aminothiazol-4-yl)acetamido)-2,2-dimethyl-4-oxoazetidin-1-yl sulfate] | 0.36 | 5.8
CC1(C)[C@H](NC(=O)/C(=N\O[C@H](COc2ccc(Nc3nccn3CCCN)nc2)C(=O)O)c2csc(N)n2)C(=O)N1OS(=O)(=O)O [Example 37B, 3-(2-((5-((R)-2-((((Z)-1-(2-aminothiazol-4-yl)-2-(((S)-2,2-dimethyl-4-oxo-1-(sulfooxy)azetidin-3-yl)amino)-2-oxoethylidene)amino)oxy)-2-carboxyethoxy)pyridin-2-yl)amino)-1H-imidazol-1-yl)propan-1-aminium 2,2,2-trifluoroacetate] | 6.25 | 25
CC(CN)Nc1ccc(-c2ccc(OC[C@H](O/N=C(\C(=O)N[C@@H]3C(=O)N(OS(=O)(=O)[O-])C3(C)C)c3csc(N)n3)C(=O)O)cc2)c[n+]1C (stereo partly drawn) [Example 75, (3S)-3-((Z)-2-(((1S)-2-(4-(6-((1-aminopropan-2-yl)amino)-1-methylpyridin-1-ium-3-yl)phenoxy)-1-carboxyethoxy)imino)-2-(2-aminothiazol-4-yl)acetamido)-2,2-dimethyl-4-oxoazetidin-1-yl sulfate] | 0.1953 | 3.125
C[n+]1cn(CCCN)cc1-c1ccc(OC[C@H](O/N=C(\C(=O)NC2C(=O)N(OS(=O)(=O)[O-])C2(C)C)c2csc(N)n2)C(=O)O)cc1 (stereo partly drawn) [Example 2, (S)-3-((Z)-2-(2-aminothiazol-4-yl)-2-(((S)-2-(4-(1-(3-ammoniopropyl)-3-methyl-1H-imidazol-3-ium-4-yl)phenoxy)-1-carboxyethoxy)imino)acetamido)-2,2-dimethyl-4-oxoazetidin-1-yl-sulfate] | 0.3906 | 3.125
C[n+]1cc(-c2ccc(OC[C@H](O/N=C(\C(=O)N[C@@H]3C(=O)N(OS(=O)(=O)O)C3(C)C)c3csc(N)n3)C(=O)O)cc2F)cn1CCCN [Example 24, (S)-3-((Z)-2-(((S)-2-(4-(1-(3-aminopropyl)-2-methyl-1H-pyrazol-2-ium-4-yl)-3-fluorophenoxy)-1-carboxyethoxy)imino)-2-(2-aminothiazol-4-yl)acetamido)-2,2-dimethyl-4-oxoazetidin-1-yl sulfate] | 0.3906 | 3.125
C[n+]1cc(-c2ccc(OCC(O/N=C(\C(=O)N[C@@H]3C(=O)N(OS(=O)(=O)O)C3(C)C)c3csc(N)n3)P(=O)(O)O)cc2)cn1CCCN (stereo partly drawn) [Example 40, (3S)-3-((Z)-2-((2-(4-(1-(3-aminopropyl)-2-methyl-1H-pyrazol-2-ium-4-yl)phenoxy)-1-phosphonoethoxy)imino)-2-(2-aminothiazol-4-yl)acetamido)-2,2-dimethyl-4-oxoazetidin-1-yl sulfate] | 3.125 | 50
C[n+]1c(-c2ccc(OC[C@H](O/N=C(\C(=O)N[C@@H]3C(=O)N(OS(=O)(=O)O)C3(C)C)c3csc(N)n3)C(=O)O)cc2)ccn1CCCN.O=C([O-])C(F)(F)F [Example 18, 1-(3-aminopropyl)-3-(4-((S)-2-((((Z)-1-(2-aminothiazol-4-yl)-2-(((S)-2,2-dimethyl-4-oxo-1-(sulfooxy)azetidin-3-yl)amino)-2-oxo-ethylidene)amino)oxy)-2-carboxyethoxy)phenyl)-2-methyl-1H-pyrazol-2-ium 2,2,2-trifluoroacetate] | 0.3906 | 6.25
C[n+]1cc(-c2ccc(OC[C@H](O/N=C(\C(=O)N[C@@H]3C(=O)N(OS(=O)(=O)[O-])C3(C)C)c3nc(N)sc3Cl)C(=O)O)cc2)ccc1NCCN [Example 67, (S)-3-((Z)-2-(2-amino-5-chlorothiazol-4-yl)-2-(((S)-2-(4-(6-((2-aminoethyl)amino)-1-methylpyridin-1-ium-3-yl)phenoxy)-1-carboxyethoxy)imino)acetamido)-2,2-dimethyl-4-oxoazetidin-1-yl sulfate] | 0.7813 | 6.25
CC1(C)[C@H](NC(=O)/C(=N\O[C@@H](COc2ccc(-c3cn(CCCN)[n+](CC(F)CN)c3)cc2)C(=O)O)c2csc(N)n2)C(=O)N1OS(=O)(=O)[O-] (single isomer, unassigned) [Example 120] | 0.1953 | 3.125
C[n+]1cc(-c2ccc(OC[C@H](O/N=C(\C(=O)N[C@@H]3C(=O)N(OS(=O)(=O)O)C3(C)C)c3csc(N)n3)C(=O)O)cc2F)cn1CC(O)CN.O=CO (stereo partly drawn) [Example 44, (3S)-3-((Z)-2-(((1S)-2-(4-(1-(3-amino-2-hydroxypropyl)-2-methyl-1H-pyrazol-2-ium-4-yl)-3-fluorophenoxy)-1-carboxyethoxy)imino)-2-(2-aminothiazol-4-yl)acetamido)-2,2-dimethyl-4-oxoazetidin-1-yl sulfate compound with formic acid (1:1)] | 0.1953 | 3.125
